Test results taken from PubChem BioAssay AID330 (DTP/NCI, 2004).
Where “and” joins values, the source holds several entries; their conditions need not be identical. Identical values can stand only once. Toxic doses and inconclusive results are not listed. How the source made its calls: active means survival T/C of 150% or more; inactive means T/C below 125% in these data. Square brackets hold non-standard residues; d marks the D form. Peptide text beside a SMILES is read from it. * marks the point of attachment. ξ: configuration not given here. Cbz = O=C(OCc1ccccc1)*; ξNva = CCCC(N)C(=O)O

Tested on: P388 leukemia ip, CD2F1 mice, survival T/C
Test: NCI In Vivo Anticancer Drug Screen. Data for tumor model P388 Leukemia (intraperitoneal) in CD2F1 (CDF1) mice
Details: endpoint: median survival time, higher = longer survival
Summary of the method: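 Mice carrying the transplanted tumor received test compound or vehicle. Survival was recorded in each group, and the value is the treated-group measurement divided by that of the vehicle-treated control group.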

[1] = dose: 60.0 mg/kg/injection, schedule: Q01DX005 (ip), vehicle: saline with Tween-80
[2] = dose: 120.0 mg/kg/injection, schedule: Q01DX005 (ip), vehicle: saline with Tween-80
[3] = dose: 240.0 mg/kg/injection, schedule: Q01DX005 (ip), vehicle: saline with Tween-80
[4] = dose: 50.0 mg/kg/injection, schedule: Q01DX009 (ip), vehicle: saline
[5] = dose: 100.0 mg/kg/injection, schedule: Q01DX009 (ip), vehicle: saline
[6] = dose: 200.0 mg/kg/injection, schedule: Q01DX009 (ip), vehicle: saline
[7] = dose: 100.0 mg/kg/injection, schedule: Q04DX003 (ip), vehicle: saline with Tween-80
[8] = dose: 200.0 mg/kg/injection, schedule: Q04DX003 (ip), vehicle: saline with Tween-80
[9] = dose: 50.0 mg/kg/injection, schedule: Q01DX005 (ip), vehicle: Klucel (hydroxypropylcellulose) (HPC)
[10] = dose: 100.0 mg/kg/injection, schedule: Q01DX005 (ip), vehicle: Klucel (hydroxypropylcellulose) (HPC)
[11] = dose: 100.0 mg/kg/injection, schedule: Q04DX002 (ip), vehicle: saline with Tween-80
[12] = dose: 50.0 mg/kg/injection, schedule: Q04DX003 (ip), vehicle: saline with Tween-80

Measured: T/C

CN=C(NN(C)C)c1ccc(NC(=O)c2ccc(C(=O)Nc3ccc(C(=NC)NN(C)C)cc3)cc2)cc1
inactive: dose: 3.3 mg/kg/injection, schedule: Q01DX009 (ip), vehicle: saline with Tween-80 115 % of control | dose: 4.3 mg/kg/injection, schedule: Q01DX009 (ip), vehicle: saline with Tween-80 118 % of control | dose: 13.2 mg/kg/injection, schedule: Q04DX003 (ip), vehicle: saline with Tween-80 91 % of control

O=NN(CCCl)C(=O)Oc1ccc(OC(=O)N(CCCl)N=O)cc1
inactive: dose: 6.25 mg/kg/injection, schedule: Q01DX001 (ip), vehicle: Klucel (hydroxypropylcellulose) (HPC) 116 % of control | dose: 12.5 mg/kg/injection, schedule: Q01DX001 (ip), vehicle: Klucel (hydroxypropylcellulose) (HPC) 119 % of control

CC(C)(C)C1CCS(=O)(=O)CC1.[Cl][Hg][Cl]
inactive: dose: 0.25 mg/kg/injection, schedule: Q01DX009 (ip), vehicle: saline 109 % of control | dose: 0.5 mg/kg/injection, schedule: Q01DX009 (ip), vehicle: saline 95 % of control | dose: 1.0 mg/kg/injection, schedule: Q01DX009 (ip), vehicle: saline 90 % of control

CCCOc1cc2c(cc1C(C)c1ccc(OCC)c(C)c1)OCO2 (stereo not given)
inactive: dose: 30.0 mg/kg/injection, schedule: Q01DX005 (ip), vehicle: saline with Tween-80 100 % of control | [1] 103 % of control | [2] 106 % of control | [3] 116 % of control

CC1=CC(C)(C)NN1C1=NS(=O)(=O)c2ccccc2N1C
inactive: [1] 101 % of control | [2] 97 % of control | [3] 101 % of control

NC1=NC(c2ccccc2O)CC(=O)N1 (stereo not given)
inactive: [4] 103 % of control | [5] 111 % of control | [6] 110 % of control

Nc1[nH]nc2nc(-c3ccccc3)cnc12
inactive: dose: 25.0 mg/kg/injection, schedule: Q01DX009 (ip), vehicle: saline with Tween-80 90 % of control | dose: 50.0 mg/kg/injection, schedule: Q01DX009 (ip), vehicle: saline with Tween-80 86 % of control | dose: 100.0 mg/kg/injection, schedule: Q01DX009 (ip), vehicle: saline with Tween-80 90 % of control | [7] 90 % of control | [8] 90 % of control | dose: 400.0 mg/kg/injection, schedule: Q04DX003 (ip), vehicle: saline with Tween-80 90 % of control

Nc1ccc(S(=O)(=O)c2ccc(N)cc2)cc1
inactive: dose: 6.25 mg/kg/injection, schedule: Q01DX005 (ip), vehicle: Klucel (hydroxypropylcellulose) (HPC) 106 % of control | dose: 12.5 mg/kg/injection, schedule: Q01DX005 (ip), vehicle: Klucel (hydroxypropylcellulose) (HPC) 98 % of control | dose: 25.0 mg/kg/injection, schedule: Q01DX005 (ip), vehicle: Klucel (hydroxypropylcellulose) (HPC) 104 % of control | [9] 105 % of control | [10] 109 % of control | dose: 150.0 mg/kg/injection, schedule: Q01DX009 (ip), vehicle: saline with Tween-80 109 % of control and 93 % of control | dose: 200.0 mg/kg/injection, schedule: Q01DX009 (ip), vehicle: saline with Tween-80 98 % of control and 105 % of control

COC(=O)NC1(NC(=O)OC)NC(=O)c2ccccc2N1
inactive: dose: 25.0 mg/kg/injection, schedule: Q01DX005 (ip), vehicle: DMSO 98 % of control | dose: 50.0 mg/kg/injection, schedule: Q01DX005 (ip), vehicle: DMSO 100 % of control

CN=C(N)NN=C(c1ccc(I)cc1)c1ccc(I)cc1
inactive: dose: 25.0 mg/kg/injection, schedule: Q04DX002 (ip), vehicle: saline with Tween-80 104 % of control | dose: 50.0 mg/kg/injection, schedule: Q04DX002 (ip), vehicle: saline with Tween-80 106 % of control | [11] 104 % of control

CCOC(=O)CS(=O)(=O)CCS(=O)(=O)CC(=O)OCC
inactive: [4] 95 % of control | [5] 97 % of control | [6] 102 % of control

COc1cc2c(cc1OC)CN1CCc3ccsc3C1C2 (stereo not given)
inactive: dose: 50.0 mg/kg/injection, schedule: Q01DX001 (ip), vehicle: Klucel (hydroxypropylcellulose) (HPC) 104 % of control | dose: 100.0 mg/kg/injection, schedule: Q01DX001 (ip), vehicle: Klucel (hydroxypropylcellulose) (HPC) 101 % of control | dose: 200.0 mg/kg/injection, schedule: Q01DX001 (ip), vehicle: Klucel (hydroxypropylcellulose) (HPC) 97 % of control

COC(=O)C1CC2C(=O)N(C)C=CC12 (stereo not given)
inactive: [11] 104 % of control | dose: 200.0 mg/kg/injection, schedule: Q04DX002 (ip), vehicle: saline with Tween-80 98 % of control | dose: 400.0 mg/kg/injection, schedule: Q04DX002 (ip), vehicle: saline with Tween-80 102 % of control

CCOC(=O)Cc1ccc2c(c1)sc1nc(-c3ccc(OC)cc3)cn12
inactive: dose: 50.0 mg/kg/injection, schedule: Q01DX009 (ip), vehicle: DMSO 104 % of control | dose: 100.0 mg/kg/injection, schedule: Q01DX009 (ip), vehicle: DMSO 103 % of control | dose: 200.0 mg/kg/injection, schedule: Q01DX009 (ip), vehicle: DMSO 94 % of control

COc1ccc(Cc2cc(C(C)(C)C)cc(C(C)(C)C)c2OC)cc1
inactive: dose: 50.0 mg/kg/injection, schedule: Q01DX005 (ip), vehicle: distilled water + alcohol 99 % of control | dose: 100.0 mg/kg/injection, schedule: Q01DX005 (ip), vehicle: distilled water + alcohol 96 % of control | dose: 200.0 mg/kg/injection, schedule: Q01DX005 (ip), vehicle: distilled water + alcohol 99 % of control

CNC(=O)NS(=O)(=O)c1cnccc1Cl
inactive: dose: 100.0 mg/kg/injection, schedule: Q01DX001 (ip), vehicle: saline with Tween-80 97 % of control | dose: 200.0 mg/kg/injection, schedule: Q01DX001 (ip), vehicle: saline with Tween-80 100 % of control | dose: 400.0 mg/kg/injection, schedule: Q01DX001 (ip), vehicle: saline with Tween-80 97 % of control

CP1(C)=NP(C)(C)=NP(C)(C)=NP(C)(C)=N1.[Cl][Pt]([Cl])([Cl])[Cl]
inactive: dose: 6.25 mg/kg/injection, schedule: Q04DX003 (ip), vehicle: saline with Tween-80 106 % of control | dose: 12.5 mg/kg/injection, schedule: Q04DX003 (ip), vehicle: saline with Tween-80 106 % of control and 107 % of control | dose: 25.0 mg/kg/injection, schedule: Q04DX003 (ip), vehicle: saline with Tween-80 110 % of control | [12] 120 % of control and 122 % of control | [7] 118 % of control

CCCC(NC(=O)CNC(=O)OCc1ccccc1)C(=O)O (stereo not drawn) (Cbz-Gly-[ξNva]-OH)
inactive: [9] 104 % of control | [10] 98 % of control

CC(=O)OC1OC(CF)C(OC(C)=O)C1OC(C)=O (stereo not given)
inactive: [12] 112 % of control | [7] 100 % of control | [8] 93 % of control

CCCCCN(CCCCC)CCCNc1c2c(nc3ccc(OC)cc13)CCCC2
inactive: dose: 3.12 mg/kg/injection, schedule: Q01DX005 (ip), vehicle: saline 94 % of control | dose: 6.25 mg/kg/injection, schedule: Q01DX005 (ip), vehicle: saline 103 % of control | dose: 12.5 mg/kg/injection, schedule: Q01DX005 (ip), vehicle: saline 99 % of control

Cc1ccc(S(=O)(=O)C(Cl)(SOCc2ccccc2)Sc2ccccc2)cc1 (stereo not given)
inactive: dose: 50.0 mg/kg/injection, schedule: Q01DX009 (ip), vehicle: Klucel (hydroxypropylcellulose) (HPC) 109 % of control | dose: 100.0 mg/kg/injection, schedule: Q01DX009 (ip), vehicle: Klucel (hydroxypropylcellulose) (HPC) 100 % of control | dose: 200.0 mg/kg/injection, schedule: Q01DX009 (ip), vehicle: Klucel (hydroxypropylcellulose) (HPC) 114 % of control
